Test results taken from patent US20190322676A1, “CERAMIDE GALACTOSYLTRANSFERASE INHIBITORS FOR THE TREATMENT OF DISEASE” (BioMarin Pharmaceutical Inc., priority 2016, published 2019).
Counter-ions that a name gives are not always drawn.

Molecular target: T1, human CGT (ceramide galactosyltransferase), CHO/CGT lysate (Homo sapiens, UniProt Q16880)
T1 construct: Full-length human CGT cDNA was cloned into the BamH1/Xho1 site of pcDNA3.1 (+); expressed in transfected cells; host or cells: Chinese hamster ovary (CHO) cells; lysate prepared with M-PER
T1 sequence (Q16880 21-541): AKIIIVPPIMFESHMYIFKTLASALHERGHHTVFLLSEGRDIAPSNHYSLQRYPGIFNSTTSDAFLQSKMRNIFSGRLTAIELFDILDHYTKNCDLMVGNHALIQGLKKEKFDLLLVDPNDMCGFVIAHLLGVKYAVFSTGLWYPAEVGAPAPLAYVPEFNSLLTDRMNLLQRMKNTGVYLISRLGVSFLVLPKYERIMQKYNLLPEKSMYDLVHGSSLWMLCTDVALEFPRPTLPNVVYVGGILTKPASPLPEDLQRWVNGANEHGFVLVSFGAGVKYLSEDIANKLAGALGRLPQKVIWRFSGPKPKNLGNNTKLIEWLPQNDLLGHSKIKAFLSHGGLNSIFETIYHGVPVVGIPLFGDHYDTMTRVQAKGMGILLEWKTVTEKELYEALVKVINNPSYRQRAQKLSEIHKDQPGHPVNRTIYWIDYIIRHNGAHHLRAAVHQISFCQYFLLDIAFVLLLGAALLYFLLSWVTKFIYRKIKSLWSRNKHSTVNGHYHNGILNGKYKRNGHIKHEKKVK
Assay: CGT enzyme assay, LC-MS/MS readout (Table 1 ranges without asterisk)
Type: biochemical
Settings: LC-MS/MS method (range without asterisk)
Experimental: Full-length human CGT cDNA was cloned into the BamH1/Xho1 site of pcDNA3.1 (+) mammalian expression vector (V90-20, Invitrogen, Carlsbad, Calif.) and the plasmid was transfected into Chinese hamster ovary (CHO) cells. Lysate was prepared using M-PER (Mammalian Protein Extraction Reagent, ThermoFisher Scientific, Grand Island, N.Y.) in the presence of a protease inhibitor cocktail (P8340, Sigma, Saint Louis, Mo.). Each 100 mm dish (100% confluent, approximately 1×10^7 cells) was lysed with 250 μL of M-PER containing protease inhibitors. Protein concentration was determined using a Pierce BCA protein assay kit (ThermoFisher Scientific). Four micrograms of CHO/CGT lysate was incubated with various concentrations of a compound (0.001 μM-50 μM) in 10 mM HEPES (pH 7.2) containing 35 μM dioleoylphosphatidylcholine, 5 mM MgCl2, 5 mM MnCl2, 1% BSA, 15 mM KCl, 1 mM EGTA, 8 mM CHAPS, 10 μM C6-NBD-dihydro-ceramide and 17.5 μM UDP-galactose in a final reaction volume of 20 μL at 37° C. for 1 hour. The final concentration of DMSO was 0.5% in both compound-treated and mock-treated samples. Tween 80 (0.01%) was optionally added to the reaction mixture to help solubilize the compounds. Each individual reaction was diluted with 80 μL of methanol:acetronitrile (1:3) containing 5 μM N-docdecanoyl-NBD-galactosylceramide (internal standard) to stop the reaction. 200 μL H2O:acetonitile (1:1) was added to precipitate the protein. After sufficient mixing, the plates were centrifuged at 2469 g for 38 minutes, 200 μL of supernatant was transferred to a LC/MS 96-deep well plate and a second spin was performed at 2469 g for 10 minutes. The final supernatant was injected in triplicate for RapidFire/MS/MS analysis.
An alternative LC-MS/MS based method was also used. For the LC-MS/MS readout, the CGT assay was identical to the one described above except for the following: […] was used as the CGT enzyme source, C12:0 (2R—OH) ceramide was used as the ceramide substrate and 0.3 μM Cl2 ceramide was used as the internal standard. Tween 80 was not present in the reaction mixture. The final supernatant was injected for LC-MS/MS analysis.
Quantitative analysis using the LC-MS/MS method: The quantitative analysis of C12:0 (2R—OH) ceramide and C12:0 (2R—OH) galactosylceramide by LC-MS/MS was performed on a Shimadzu ultra-fast liquid chromatography (Shimadzu, Japan) coupled with API 4000 mass spectrometer (Applied Biosystems, Concord, Ontario, Canada). Analyst 1.5 software packages (Applied Biosystems) were used to control the LC-MS/MS system, as well as for data acquisition and processing. 10 μL of sample was loaded onto a Luna C18 column (50 mm×2.0 mm, I.D. 3 μm, 100A) (Phenomenex, USA) for chromatographic separation. Mobile phase A consisted of HPLC grade water with 0.1% formic acid (v/v) and mobile phase B consisted of acetonitrile supplemented with 0.1% formic acid (v/v). The separation was achieved using the following gradient program at a flow rate of 0.8 mL/min: the initial mobile phase was 70% B, which was increased in a linear fashion to 95% B in 1.50 min, and then maintained at 95% B until 3.50 min. The mobile phase was then reset to 70% B within 0.01 min, and maintained until 4.50 min. The total run time was 4.50 min. The MS/MS detection was performed in ESI positive mode. The mass transition selected for quantification was m/z 498.5-264.3 for C12:0 (2R—OH) ceramide under the collision energy of 38.8 V, and the mass transition of C12:0 (2R—OH) galactosylceramide was m/z 660.6-264.5 under the collision energy of 51 V. The mass transition of Cl2 ceramide which was used as internal standard was m/z 482.4-264.3 under the collision energy of 33V. Compound IC50 values were calculated using a protocol identical to the one described for the RapidFire method (see Table 1, where data ranges without an asterix correspond to analysis using the LC-MS/MS method).
Using the above CGT enzyme and CGT cellular assays, the compounds of Table 1 were tested. […]

SMILES | IC50 [µM]
NC1CC2CCC(C1)N2C(=O)C(NC(=O)C(=O)c1ccc(-c2ccc(F)cc2)cn1)C(F)(F)c1ccc(Br)cc1 (stereo not shown) [Compound 14, N-(3-(3-amino-8-azabicyclo[3.2.1]octan-8-yl)-1-(4-bromophenyl)-1,1l-difluoro-3-oxopropan-2-yl)-2-(5-(4-fluorophenyl)pyridin-2-yl)-2-oxoacetamide trifluoroacetate] | 30 to 100
NC1CC2CCC(C1)N2C(=O)[C@@H](NS(=O)(=O)c1ccc(OCc2ccc(Cl)cc2)cc1)C(F)(F)c1ccc(Br)cc1 (stereo partly drawn) [Compound 15-1, N-((2R)-3-(3-amino-8-azabicyclo[3.2.1]octan-8-yl)-1-(4-bromophenyl)-1,1-difluoro-3-oxopropan-2-yl)-4-((4-chlorobenzyl)oxy)benzenesulfonamide trifluoroacetate] | 1 to 10
NC1CC2CCC(C1)N2C(=O)[C@H](NS(=O)(=O)c1ccc(OCc2ccc(Cl)cc2)cc1)C(F)(F)c1ccc(Br)cc1 (stereo partly drawn) [Compound 15-2, N-((2S)-3-(3-amino-8-azabicyclo[3.2.1]octan-8-yl)-1-(4-bromophenyl)-1,1-difluoro-3-oxopropan-2-yl)-4-((4-chlorobenzyl)oxy) benzenesulfonamide trifluoroacetate] | 30 to 100
CC(C)c1ccc2cc(S(=O)(=O)N[C@H](C(=O)N3C4CCC3CC(N)C4)C(F)(F)c3ccc(Br)cc3)ccc2c1 (stereo partly drawn) [Compound 16-1, N-((2R)-3-(3-amino-8-azabicyclo[3.2.1]octan-8-yl)-1-(4-bromophenyl)-1,1-difluoro-3-oxopropan-2-yl)-6-isopropylnaphthalene-2-sulfonamide trifluoroacetate] | 1 to 10
CC(C)c1ccc2cc(S(=O)(=O)N[C@@H](C(=O)N3C4CCC3CC(N)C4)C(F)(F)c3ccc(Br)cc3)ccc2c1 (stereo partly drawn) [Compound 16-2, N-((2S)-3-(3-amino-8-azabicyclo[3.2.1]octan-8-yl)-1-(4-bromophenyl)-1,1-difluoro-3-oxopropan-2-yl)-6-isopropylnaphthalene-2-sulfonamide trifluoroacetate] | 30 to 100
NC1CC2CCC(C1)N2C(=O)[C@@H](NS(=O)(=O)c1cccc(OCc2ccc(F)cc2)c1)C(F)(F)c1ccc(Br)cc1 (stereo partly drawn) [Compound 17-1, N-((2R)-3-(3-amino-8-azabicyclo[3.2.1]octan-8-yl)-1-(4-bromophenyl)-1,1-difluoro-3-oxopropan-2-yl)-3-((4-fluorobenzyl)oxy)benzenesulfonamide trifluoroacetate] | 30 to 100
NC1CC2CCC(C1)N2C(=O)[C@H](NS(=O)(=O)c1cccc(OCc2ccc(F)cc2)c1)C(F)(F)c1ccc(Br)cc1 (stereo partly drawn) [Compound 17-2, N-((2S)-3-(3-amino-8-azabicyclo[3.2.1]octan-8-yl)-1-(4-bromophenyl)-1,1-difluoro-3-oxopropan-2-yl)-3-((4-fluorobenzyl)oxy) benzenesulfonamide trifluoroacetate] | 30 to 100
NC1CC2CCC(C1)N2C(=O)[C@@H](NS(=O)(=O)c1ccc(Oc2ccc(Cl)cn2)cc1)C(F)(F)c1ccc(Br)cc1 (stereo partly drawn) [Compound 18-1, N-((2R)-3-(3-amino-8-azabicyclo[3.2.1]octan-8-yl)-1-(4-bromophenyl)-1,1-difluoro-3-oxopropan-2-yl)-4-((5-chloropyridin-2-yl)oxy)benzenesulfonamide trifluoroacetate] | 10 to 30
NC1CC2CCC(C1)N2C(=O)[C@H](NS(=O)(=O)c1ccc(Oc2ccc(Cl)cn2)cc1)C(F)(F)c1ccc(Br)cc1 (stereo partly drawn) [Compound 18-2, N-((2S)-3-(3-amino-8-azabicyclo[3.2.1]octan-8-yl)-1-(4-bromophenyl)-1,1-difluoro-3-oxopropan-2-yl)-4-((5-chloropyridin-2-yl)oxy) benzenesulfonamide trifluoroacetate] | 30 to 100
CC(C)Oc1ccc2cc([C@H](O)C(=O)N[C@H](C(=O)N3C4CCC3CC(N)C4)C(F)(F)c3ccc(Br)cc3)ccc2c1 (stereo partly drawn) [Compound 19-3, (2S)—N-((2R)-3-(3-amino-8-azabicyclo[3.2.1]octan-8-yl)-1-(4-bromophenyl)-1,1-difluoro-3-oxopropan-2-yl)-2-hydroxy-2-(6-isopropoxynaphthalen-2-yl)acetamide trifluoroacetate] | 1 to 10
